Laboratory results taken from US7282515B2, “Derivatives of azaspiro compounds for the treatment of pain” (Schwarz Pharma AG, priority 2002, dated 2007).

Key:
[1] = tested on: NMRI mice; experiment: formalin test (in-vivo test for analgesic effectiveness); set-up: key to Mean deviation of the pain reaction compared to control (%) 30–35′ after administration of formalin / Mean deviation of the pain reaction compared to control (%) 20–25′ after administration of formalin: (+): Intensified pain reaction
Description: (§1) In each case, the maximum dosage selected for the concentration of azaspiro compounds was held, by a factor of about 2, below the toxic dose previously determined in the IRWIN test (Irwin, Psychopharmacologia 13 (1968) 222).
A reduction in the pain reaction is expressed in negative percentage figures.
1. In-vivo Test for Determining the Analgesic Effectiveness of the Azaspiro Compounds
The test was conducted as described by Wheeler-Aceto (Psychopharmacology 104, 1991, 35).
NMRI mice having a weight of 20-25 g were kept under controlled conditions (22±2° C., 40-70% relative humidity). 25 μl of a 5% formocarbonyl solution was injected in the hind leg and the leg-licking frequency was then clocked for 5 minutes each at defined intervals (20, 30, 40 minutes).
Next, for the formalin test, the test substances were dissolved in a physiological salt solution with 0.5% sodium carboxymethyl cellulose and were each measured in 1-3 dosages that had been applied intraperitoneally 10 minutes before administration of formalin. The comparative reference value was provided by a control excipient (10 ml/kg).
The test was performed in blind fashion on 10 mice per test series. The evaluation was based on a comparison of the treated animals with control excipients at three different times. […] Accordingly, an average 50% reduction of the pain reaction for the treated animals is obtained when in a defined period (e.g. 30-35′ after the formalin injection) the leg-licking duration (averaged over the 10 test animals) is reduced by 50% compared to the untreated animals. The statistical significance was determined using the Mann-Whitney U-test.

[2] = IRWIN test (toxic dose / maximally tolerable dosage); format: in vivo
Description: as §1, with “FIG. 1 and Table 1 show the reaction of test animals 20-45 minutes after the intraperitoneal administration of selected compounds. In” for “In”
First, the highest possible non-toxic concentration of the respective test substances that could be used was determined by an IRWIN test (Irwin, Psychopharmacologia 13, 1968, 222).

[3] = 8 mg/kg i.p., Test series 1 (n = 10)
[4] = 8 mg/kg i.p., Test series 2 (n = 10)
[5] = 16 mg/kg i.p., Test series 1 (n = 10)
[6] = 16 mg/kg i.p., Test series 2 (n = 10)
[7] = 32 mg/kg i.p., Test series 1 (n = 10)
[8] = 32 mg/kg i.p., Test series 2 (n = 10)
[9] = 4 mg/kg i.p., Test series 2 (n = 10)
[10] = 64 mg/kg i.p., Test series 1 (n = 10)
[11] = 64 mg/kg i.p., Test series 2 (n = 10)
[12] = 32 mg/kg i.p., (n = 10), no test series named

| SMILES | Mean deviation of the pain reaction compared to control (%) 20–25′ after administration of formalin [1, 5] | Mean deviation of the pain reaction compared to control (%) 30–35′ after administration of formalin [1, 5] | Mean deviation of the pain reaction compared to control (%) 20–25′ after administration of formalin [1, 6] | Mean deviation of the pain reaction compared to control (%) 30–35′ after administration of formalin [1, 6] | Mean deviation of the pain reaction compared to control (%) 40–45′ after administration of formalin [1, 6] | Mean deviation of the pain reaction compared to control (%) 20–25′ after administration of formalin [1, 7] | Mean deviation of the pain reaction compared to control (%) 30–35′ after administration of formalin [1, 7] | Mean deviation of the pain reaction compared to control (%) 40–45′ after administration of formalin [1, 5] | Mean deviation of the pain reaction compared to control (%) 40–45′ after administration of formalin [1, 7] | Mean deviation of the pain reaction compared to control (%) 20–25′ after administration of formalin [1, 10] | Mean deviation of the pain reaction compared to control (%) 30–35′ after administration of formalin [1, 10] | Mean deviation of the pain reaction compared to control (%) 40–45′ after administration of formalin [1, 10] | further results |
| --- | --- | --- | --- | --- | --- | --- | --- | --- | --- | --- | --- | --- | --- |
| O=C1CC2(CCCCC2)CN1 [GPL, 2-azaspiro[4.5]decan-3-on, reference compound] | (+) | (+) | −74% | −40% | −41% | (+) | −10% | – | – | – | – | – | Mean deviation of the pain reaction compared to control (%) 20–25′ after administration of formalin [1, 3]: (+); Mean deviation of the pain reaction compared to control (%) 30–35′ after administration of formalin [1, 3]: (+); Mean deviation of the pain reaction compared to control (%) 20–25′ after administration of formalin [1, 4]: −58%; Mean deviation of the pain reaction compared to control (%) 30–35′ after administration of formalin [1, 4]: −18%; Mean deviation of the pain reaction compared to control (%) 40–45′ after administration of formalin [1, 4]: −15%; Mean deviation of the pain reaction compared to control (%) 20–25′ after administration of formalin [1, 8]: −64%; Mean deviation of the pain reaction compared to control (%) 30–35′ after administration of formalin [1, 8]: −15%; Mean deviation of the pain reaction compared to control (%) 40–45′ after administration of formalin [1, 8]: −46%; side effects above the maximally tolerable dosages (sedation, tremor, hypothermia) [2]: significant lethality rate |
| O=C1NC(=O)C2(CCCCC2)N1 [SPM 10011, 1,3-diazaspiro[4.5]decane-2,4-dion] | −75% | −11% | −84% | −21% | −34% | −82% | −64% | −55% | −64% | −100% | −100% | −80% | Mean deviation of the pain reaction compared to control (%) 20–25′ after administration of formalin [1, 9]: −62%; Mean deviation of the pain reaction compared to control (%) 30–35′ after administration of formalin [1, 9]: (+); Mean deviation of the pain reaction compared to control (%) 20–25′ after administration of formalin [1, 11]: −100%; Mean deviation of the pain reaction compared to control (%) 30–35′ after administration of formalin [1, 11]: −100%; Mean deviation of the pain reaction compared to control (%) 40–45′ after administration of formalin [1, 11]: −97% |
| S=C1NC(=S)C2(CCCCC2)N1 [SPM 10013, 1,3-diazaspiro[4.5]decane-2,4-dithion] | −60% | −14% | – | – | – | −82% | −60% | −49% | −30% | −98% | −95% | −78% | – |
| O=C1NCC2(CCCCC2)N1 [SPM 10019, 1,3-diazaspiro[4.5]decane-2-on] | – | – | – | – | – | – | – | – | – | – | – | – | Mean deviation of the pain reaction compared to control (%) 20–25′ after administration of formalin [1, 12]: −52%; Mean deviation of the pain reaction compared to control (%) 40–45′ after administration of formalin [1, 12]: −40% |
